According to ChEMBL document CHEMBL4507276 (2021):

How the values were obtained:
[1] = target: T1, 5-hydroxytryptamine receptor 2C (Homo sapiens) (UniProt P28335); details: Compound concentration 10.0 uM
T1 sequence (whole entry): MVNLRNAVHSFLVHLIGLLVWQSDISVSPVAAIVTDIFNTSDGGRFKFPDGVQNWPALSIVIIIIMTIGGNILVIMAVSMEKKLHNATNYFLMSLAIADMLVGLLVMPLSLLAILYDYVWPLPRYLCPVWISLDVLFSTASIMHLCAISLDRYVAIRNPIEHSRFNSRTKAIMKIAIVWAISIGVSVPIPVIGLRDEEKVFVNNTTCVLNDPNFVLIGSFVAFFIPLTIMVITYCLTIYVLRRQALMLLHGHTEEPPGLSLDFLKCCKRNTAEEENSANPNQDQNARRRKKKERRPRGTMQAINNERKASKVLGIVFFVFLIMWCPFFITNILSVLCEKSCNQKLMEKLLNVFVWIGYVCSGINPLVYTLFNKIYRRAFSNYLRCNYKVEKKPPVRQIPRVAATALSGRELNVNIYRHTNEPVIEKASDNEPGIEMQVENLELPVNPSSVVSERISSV

[2] = test system: eIF-2-alpha kinase GCN2 (Homo sapiens), Q9P2K8 [S808G]; details: Compound concentration 1000.0 nM
[3] = target: Calcium/calmodulin-dependent protein kinase type II subunit beta (Homo sapiens) (UniProt Q13554); details: Compound concentration 1000.0 nM
[4] = target: Tyrosine-protein kinase FRK (Homo sapiens) (UniProt P42685); details: Compound concentration 1000.0 nM
Tyrosine-protein kinase FRK (Homo sapiens), sequence (P42685 whole entry): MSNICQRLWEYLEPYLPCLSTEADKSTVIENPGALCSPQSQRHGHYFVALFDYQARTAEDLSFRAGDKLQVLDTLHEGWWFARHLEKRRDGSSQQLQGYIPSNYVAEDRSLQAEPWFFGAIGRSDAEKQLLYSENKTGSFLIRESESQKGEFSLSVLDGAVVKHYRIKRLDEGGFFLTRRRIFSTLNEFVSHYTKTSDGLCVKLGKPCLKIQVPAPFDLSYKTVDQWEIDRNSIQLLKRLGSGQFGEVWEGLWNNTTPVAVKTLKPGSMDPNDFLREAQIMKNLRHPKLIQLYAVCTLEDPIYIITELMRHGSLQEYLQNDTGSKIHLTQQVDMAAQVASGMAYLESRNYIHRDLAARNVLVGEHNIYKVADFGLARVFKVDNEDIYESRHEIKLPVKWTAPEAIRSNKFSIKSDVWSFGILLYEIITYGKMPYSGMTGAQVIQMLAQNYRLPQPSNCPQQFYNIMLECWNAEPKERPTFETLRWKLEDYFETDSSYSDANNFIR

[5] = target: Serine/threonine-protein kinase PAK 6 (Homo sapiens) (UniProt Q9NQU5); details: Compound concentration 1000.0 nM
[6] = target: Receptor-interacting serine/threonine-protein kinase 1 (Homo sapiens) (UniProt Q13546); details: Compound concentration 1000.0 nM
Receptor-interacting serine/threonine-protein kinase 1 (Homo sapiens), sequence (Q13546 whole entry): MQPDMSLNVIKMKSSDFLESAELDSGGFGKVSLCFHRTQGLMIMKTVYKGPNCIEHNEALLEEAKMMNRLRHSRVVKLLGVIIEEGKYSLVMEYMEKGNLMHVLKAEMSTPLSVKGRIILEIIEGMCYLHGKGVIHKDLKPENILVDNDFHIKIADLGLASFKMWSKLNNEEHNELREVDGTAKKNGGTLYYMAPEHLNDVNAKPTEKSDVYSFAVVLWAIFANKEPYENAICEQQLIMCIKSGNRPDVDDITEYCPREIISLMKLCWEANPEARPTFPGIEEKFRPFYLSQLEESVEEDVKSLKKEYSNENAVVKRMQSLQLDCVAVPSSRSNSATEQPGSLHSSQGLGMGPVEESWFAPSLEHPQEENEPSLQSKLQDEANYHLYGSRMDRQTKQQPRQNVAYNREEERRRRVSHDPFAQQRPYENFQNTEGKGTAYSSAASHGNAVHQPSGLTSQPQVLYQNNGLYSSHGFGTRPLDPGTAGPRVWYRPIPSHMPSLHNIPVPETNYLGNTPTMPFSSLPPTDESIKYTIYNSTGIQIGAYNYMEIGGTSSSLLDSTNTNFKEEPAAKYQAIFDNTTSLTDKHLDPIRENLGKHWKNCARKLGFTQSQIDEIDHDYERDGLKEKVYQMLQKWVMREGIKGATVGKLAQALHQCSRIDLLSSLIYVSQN

[7] = target: Tyrosine-protein kinase JAK2 (Homo sapiens) (UniProt O60674); details: Compound concentration 1000.0 nM
Tyrosine-protein kinase JAK2 (Homo sapiens), sequence (O60674 whole entry, the tested form may be a part): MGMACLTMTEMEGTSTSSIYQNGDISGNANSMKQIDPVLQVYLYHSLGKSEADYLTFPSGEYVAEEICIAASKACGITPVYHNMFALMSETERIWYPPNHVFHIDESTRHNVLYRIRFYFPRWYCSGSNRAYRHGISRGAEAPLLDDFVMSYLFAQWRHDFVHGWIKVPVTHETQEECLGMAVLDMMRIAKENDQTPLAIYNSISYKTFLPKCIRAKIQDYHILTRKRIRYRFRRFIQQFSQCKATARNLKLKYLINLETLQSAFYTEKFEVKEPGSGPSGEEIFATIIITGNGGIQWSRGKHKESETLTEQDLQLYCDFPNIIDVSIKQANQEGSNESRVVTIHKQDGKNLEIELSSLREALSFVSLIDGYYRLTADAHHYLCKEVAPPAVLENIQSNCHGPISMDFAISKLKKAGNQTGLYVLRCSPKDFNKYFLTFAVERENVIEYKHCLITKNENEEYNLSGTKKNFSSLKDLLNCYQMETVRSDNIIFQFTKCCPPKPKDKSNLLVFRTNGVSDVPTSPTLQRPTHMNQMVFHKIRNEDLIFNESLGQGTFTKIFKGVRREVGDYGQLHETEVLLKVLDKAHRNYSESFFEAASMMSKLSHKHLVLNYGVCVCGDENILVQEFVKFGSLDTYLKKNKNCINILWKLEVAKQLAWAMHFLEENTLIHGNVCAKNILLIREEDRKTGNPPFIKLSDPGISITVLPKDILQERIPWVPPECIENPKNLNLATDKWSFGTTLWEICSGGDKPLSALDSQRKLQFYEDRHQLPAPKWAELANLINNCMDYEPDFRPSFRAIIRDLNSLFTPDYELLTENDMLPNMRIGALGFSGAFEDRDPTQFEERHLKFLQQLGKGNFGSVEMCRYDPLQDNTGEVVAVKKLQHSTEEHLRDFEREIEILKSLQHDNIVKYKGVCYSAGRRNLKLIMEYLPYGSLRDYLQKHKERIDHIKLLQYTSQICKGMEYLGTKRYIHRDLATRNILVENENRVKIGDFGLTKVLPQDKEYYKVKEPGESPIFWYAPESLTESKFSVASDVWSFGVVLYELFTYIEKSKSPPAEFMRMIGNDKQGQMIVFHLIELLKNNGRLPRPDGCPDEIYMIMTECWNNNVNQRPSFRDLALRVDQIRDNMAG

[8] = target: LIM domain kinase 1 (Homo sapiens) (UniProt P53667); details: Compound concentration 1000.0 nM
LIM domain kinase 1 (Homo sapiens), sequence (P53667 whole entry, looked up, the tested form may be a part): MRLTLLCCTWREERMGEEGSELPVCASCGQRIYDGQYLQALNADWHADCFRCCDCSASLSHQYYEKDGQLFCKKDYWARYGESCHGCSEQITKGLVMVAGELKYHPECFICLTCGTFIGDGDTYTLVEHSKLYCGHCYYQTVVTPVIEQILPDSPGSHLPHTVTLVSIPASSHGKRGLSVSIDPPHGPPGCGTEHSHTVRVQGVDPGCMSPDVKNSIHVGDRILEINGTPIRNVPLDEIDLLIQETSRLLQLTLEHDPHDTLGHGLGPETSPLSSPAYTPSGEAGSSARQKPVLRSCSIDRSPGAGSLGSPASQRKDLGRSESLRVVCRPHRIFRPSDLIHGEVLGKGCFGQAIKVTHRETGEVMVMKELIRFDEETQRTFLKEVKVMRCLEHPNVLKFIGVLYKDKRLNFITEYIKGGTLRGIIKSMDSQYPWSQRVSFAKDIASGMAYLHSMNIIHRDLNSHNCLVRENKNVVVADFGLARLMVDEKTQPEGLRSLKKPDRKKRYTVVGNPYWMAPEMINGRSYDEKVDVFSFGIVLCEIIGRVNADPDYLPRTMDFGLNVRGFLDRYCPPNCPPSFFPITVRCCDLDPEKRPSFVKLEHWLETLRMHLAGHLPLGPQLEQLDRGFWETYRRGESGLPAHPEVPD

[9] = target: T2, Serine/threonine-protein kinase 3 (Homo sapiens) (UniProt Q13188); details: Compound concentration 1000.0 nM
T2 sequence (whole entry): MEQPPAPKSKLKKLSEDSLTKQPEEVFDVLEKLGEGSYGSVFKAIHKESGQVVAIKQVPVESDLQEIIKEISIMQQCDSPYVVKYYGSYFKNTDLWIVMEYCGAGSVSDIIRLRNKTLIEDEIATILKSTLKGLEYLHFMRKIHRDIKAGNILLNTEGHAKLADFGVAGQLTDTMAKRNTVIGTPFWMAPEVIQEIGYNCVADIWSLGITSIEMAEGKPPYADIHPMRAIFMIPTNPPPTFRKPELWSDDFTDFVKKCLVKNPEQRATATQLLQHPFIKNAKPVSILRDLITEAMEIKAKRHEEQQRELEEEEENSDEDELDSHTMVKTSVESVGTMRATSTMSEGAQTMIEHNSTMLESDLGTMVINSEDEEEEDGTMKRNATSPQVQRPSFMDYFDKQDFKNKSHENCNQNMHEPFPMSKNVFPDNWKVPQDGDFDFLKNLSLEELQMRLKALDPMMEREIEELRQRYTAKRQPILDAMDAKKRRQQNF

[10] = target: T3, Ephrin type-B receptor 2 (Homo sapiens) (UniProt P29323); details: Compound concentration 1000.0 nM
T3 sequence (whole entry): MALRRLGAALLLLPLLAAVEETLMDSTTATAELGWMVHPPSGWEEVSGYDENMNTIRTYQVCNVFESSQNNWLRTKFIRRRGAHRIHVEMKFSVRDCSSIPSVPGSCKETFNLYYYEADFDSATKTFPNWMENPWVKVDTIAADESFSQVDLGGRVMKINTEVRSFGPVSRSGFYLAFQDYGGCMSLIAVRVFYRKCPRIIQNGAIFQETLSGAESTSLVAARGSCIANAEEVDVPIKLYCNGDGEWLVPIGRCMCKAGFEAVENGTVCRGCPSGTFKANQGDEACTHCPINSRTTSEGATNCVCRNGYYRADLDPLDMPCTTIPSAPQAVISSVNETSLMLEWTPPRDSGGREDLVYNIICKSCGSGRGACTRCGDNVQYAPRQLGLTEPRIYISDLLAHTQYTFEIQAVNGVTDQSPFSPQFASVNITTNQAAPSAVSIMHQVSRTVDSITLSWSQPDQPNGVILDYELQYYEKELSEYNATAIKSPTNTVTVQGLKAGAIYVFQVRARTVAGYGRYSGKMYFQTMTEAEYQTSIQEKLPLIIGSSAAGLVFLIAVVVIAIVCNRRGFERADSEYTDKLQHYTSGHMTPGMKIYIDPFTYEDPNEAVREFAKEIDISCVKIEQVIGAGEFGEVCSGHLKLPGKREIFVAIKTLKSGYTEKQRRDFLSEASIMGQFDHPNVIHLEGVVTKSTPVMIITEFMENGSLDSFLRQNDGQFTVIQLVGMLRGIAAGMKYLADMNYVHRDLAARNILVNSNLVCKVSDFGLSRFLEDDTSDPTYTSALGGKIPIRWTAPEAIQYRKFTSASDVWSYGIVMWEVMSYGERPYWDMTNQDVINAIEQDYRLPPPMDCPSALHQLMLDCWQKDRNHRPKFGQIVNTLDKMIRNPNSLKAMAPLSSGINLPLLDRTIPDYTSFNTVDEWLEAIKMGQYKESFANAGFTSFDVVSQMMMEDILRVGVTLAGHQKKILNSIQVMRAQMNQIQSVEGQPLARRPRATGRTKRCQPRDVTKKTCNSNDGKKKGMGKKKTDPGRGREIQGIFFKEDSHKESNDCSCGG

[11] = target: STE20/SPS1-related proline-alanine-rich protein kinase (Homo sapiens) (UniProt Q9UEW8); details: Compound concentration 1000.0 nM
[12] = test system: Epidermal growth factor receptor (Homo sapiens), P00533 [UNDEFINED MUTATION]; details: Compound concentration 1000.0 nM
Epidermal growth factor receptor (Homo sapiens), P00533 [UNDEFINED MUTATION], sequence (P00533 whole entry, looked up, change not shown): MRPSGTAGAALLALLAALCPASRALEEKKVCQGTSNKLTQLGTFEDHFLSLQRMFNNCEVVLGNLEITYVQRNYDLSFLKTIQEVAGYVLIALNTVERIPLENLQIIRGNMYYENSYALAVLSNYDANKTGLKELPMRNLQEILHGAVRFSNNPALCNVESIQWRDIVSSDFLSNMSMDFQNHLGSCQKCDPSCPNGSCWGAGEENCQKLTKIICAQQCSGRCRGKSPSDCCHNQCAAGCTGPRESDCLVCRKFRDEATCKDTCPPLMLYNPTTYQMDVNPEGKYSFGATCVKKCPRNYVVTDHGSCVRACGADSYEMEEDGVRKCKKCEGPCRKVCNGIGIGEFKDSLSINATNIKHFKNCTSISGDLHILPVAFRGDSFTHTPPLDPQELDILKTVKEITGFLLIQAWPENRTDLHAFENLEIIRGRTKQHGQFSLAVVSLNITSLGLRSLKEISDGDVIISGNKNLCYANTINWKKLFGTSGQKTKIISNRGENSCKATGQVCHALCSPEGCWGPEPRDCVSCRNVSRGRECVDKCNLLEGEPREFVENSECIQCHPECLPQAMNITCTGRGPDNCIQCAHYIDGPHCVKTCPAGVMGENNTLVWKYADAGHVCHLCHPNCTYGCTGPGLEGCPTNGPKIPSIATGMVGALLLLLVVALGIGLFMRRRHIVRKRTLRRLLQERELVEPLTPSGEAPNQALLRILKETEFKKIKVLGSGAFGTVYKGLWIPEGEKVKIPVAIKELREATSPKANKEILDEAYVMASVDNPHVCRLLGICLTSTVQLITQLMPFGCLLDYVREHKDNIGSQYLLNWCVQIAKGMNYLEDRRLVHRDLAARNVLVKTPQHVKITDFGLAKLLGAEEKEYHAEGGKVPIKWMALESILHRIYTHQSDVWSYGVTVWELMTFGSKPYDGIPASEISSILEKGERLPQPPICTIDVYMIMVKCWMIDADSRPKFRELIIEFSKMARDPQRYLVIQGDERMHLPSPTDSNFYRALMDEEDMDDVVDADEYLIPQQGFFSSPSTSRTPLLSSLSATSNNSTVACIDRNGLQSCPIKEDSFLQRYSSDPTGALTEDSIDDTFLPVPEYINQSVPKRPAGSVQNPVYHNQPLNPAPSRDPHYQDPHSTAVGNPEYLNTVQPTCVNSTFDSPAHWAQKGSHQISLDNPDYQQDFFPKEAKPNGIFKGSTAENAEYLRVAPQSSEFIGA

[13] = target: Serine/threonine-protein kinase PAK 4 (Homo sapiens) (UniProt O96013); details: Compound concentration 1000.0 nM
[14] = target: Dual specificity mitogen-activated protein kinase kinase 2 (Homo sapiens) (UniProt P36507); details: Compound concentration 1000.0 nM
Dual specificity mitogen-activated protein kinase kinase 2 (Homo sapiens), sequence (P36507 whole entry): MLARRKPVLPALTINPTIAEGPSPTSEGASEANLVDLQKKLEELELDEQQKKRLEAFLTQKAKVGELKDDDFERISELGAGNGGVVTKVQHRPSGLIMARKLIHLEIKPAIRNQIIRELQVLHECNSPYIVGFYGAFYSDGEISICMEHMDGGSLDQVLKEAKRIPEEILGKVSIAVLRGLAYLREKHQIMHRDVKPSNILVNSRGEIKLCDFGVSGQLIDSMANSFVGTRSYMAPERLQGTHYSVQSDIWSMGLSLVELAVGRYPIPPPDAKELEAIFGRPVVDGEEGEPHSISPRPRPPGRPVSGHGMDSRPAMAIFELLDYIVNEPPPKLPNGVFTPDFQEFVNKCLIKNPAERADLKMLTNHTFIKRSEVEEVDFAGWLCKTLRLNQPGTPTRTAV

[15] = target: Serine/threonine-protein kinase 17B (Homo sapiens) (UniProt O94768); details: Compound concentration 1000.0 nM
Serine/threonine-protein kinase 17B (Homo sapiens), sequence (O94768 whole entry): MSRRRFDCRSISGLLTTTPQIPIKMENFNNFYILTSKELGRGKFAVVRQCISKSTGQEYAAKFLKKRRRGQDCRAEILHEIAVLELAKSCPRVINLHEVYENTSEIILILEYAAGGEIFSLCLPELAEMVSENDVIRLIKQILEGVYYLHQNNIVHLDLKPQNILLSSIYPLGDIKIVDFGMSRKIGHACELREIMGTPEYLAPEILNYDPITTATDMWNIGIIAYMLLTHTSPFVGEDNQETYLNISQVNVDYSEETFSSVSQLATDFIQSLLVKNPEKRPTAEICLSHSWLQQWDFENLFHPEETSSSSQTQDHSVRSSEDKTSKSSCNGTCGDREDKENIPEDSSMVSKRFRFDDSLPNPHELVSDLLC

CN(C)C(=O)Cn1cc(-c2nc(C3(c4ccc(-c5cnc(N)nc5)cc4)CC3)no2)cn1 [BI 0153]
inactive: inhibition [1] 9.74% | residual activity [2] 83% | residual activity [3] 94% | residual activity [4] 100% | residual activity [5] 100% | residual activity [6] 89% | residual activity [7] 65% | residual activity [8] 100% | residual activity [9] 100% | residual activity [10] 70% | residual activity [11] 100% | residual activity [12] 100% | residual activity [13] 100% | residual activity [14] 80% | residual activity [15] 100%

CN(C)C(=O)Cn1cc(-c2nc([C@@](C)(c3ccc(-c4cnc(N)nc4)cc3)C3CC3)no2)cn1 [BI 665915]
inactive: inhibition [1] 0.496% | residual activity [2] 100% | residual activity [3] 96% | residual activity [4] 90% | residual activity [5] 100% | residual activity [6] 82% | residual activity [7] 73% | residual activity [8] 81% | residual activity [9] 100% | residual activity [10] 87% | residual activity [11] 81% | residual activity [12] 100% | residual activity [13] 96% | residual activity [14] 86% | residual activity [15] 88%
